This is an account of results in patent US4518613A, “Thioalkanoyl-carnitines, process for their preparation and mucolytic pharmaceutical compositions containing same” (priority 1981, dated 1985).

Data set [1] is described as follows: Mucolytic activity in vitro: modification of human sputum density by thromboelastograph (method of Morandini et al.). How it is done:
The tests were carried out in vitro by using the method disclosed by Morandini et al. (Lotta contro la tubercolosi 47, n. 4, 1977). A thromboelastograph was used to follow the variations induced by the compounds of general formula (I) and acetylcysteine on the rheological properties of human sputum.

The next data set deals with bronchial secretion. The experiment in a line: Expectorant activity: bronchial secretion in anesthetized rabbits (method of Perry et al.). The class given is in vivo. The note with it: oral, rabbit, 20 to 40 mg. How it is done: The tests were carried out on male rabbits, weighing 2-3 Kg, anesthetized with ethyl urethane, by following the method disclosed by Perry et al. (J. Pharm. Exp. Ther. 73, 65, 1941).
Each cannula was connected to a feeding device which delivered a steady flow-rate of pre-heated air (36°-38° C.) at constant humidity (80%). At the lower end of each cannula, a graduated cylinder was fitted, wherein the bronchial secretion was collected. All of the animals breathed spontaneously and consequently they self-regulated the air intake suitable for normal respiration. After an hour following cannula insertion, the animals were administered oraly (by stomach tube) the compounds of general formula (I) dissolved in distilled water at doses comprised between 20 and 40 mg. […] The control animals (8) were given water only. The amount of secretion was determined after 1, 2 and 4 hours from administration.

Data set [2] in a line: Acute toxicity, LD50 by the Weil method, e.p. administration in mouse. To be noted: in vivo, ip, Weil method N = 4, K = 4. From the text:
LD50 of the compounds of general formula (I) assessed with the Weil method ("Tables for convenient calculation of median effective dose (LD50 or ED50) and instructions in their use", Biometrics, 249-253, 1952), by e.p. administration in mouse is shown in Table 1.
LD50 and fiducial limits, mg/Kg e.p., of the compounds of for-
mula (I). Weil method N = 4, K = 4.

For the molecule `CC(=O)N[C@@H](CS)C(=O)O` [Acetylcysteine, acetylcysteine], the “Percentage drop of the tracing versus maximum peak (mucolytic activity index)” value in data set [1] (after addition of 1 ml of a 10% solution at dilution 1/30) is 84 Percentage; in data set [1] (after addition of 1 ml of a 10% solution at dilution 1/60) it was 55 Percentage.

For `CC(=O)SCCCCC(=O)OC(CC(=O)O)C[N+](C)(C)C` (centres unmarked) [ST-412, 5-thioacetyl pentanoyl-carnitine], the results for the “Percentage variations ± s.e. of bronchial secretion versus basal values” in the data set with bronchial secretion (1 hour after administration), with bronchial secretion (2 hours after administration) and in the data set on bronchial secretion (4 hours after administration) were “+1.3 ± 0.04 Percentage”, “+2.1 ± 0.05 Percentage” and “+3.1 ± 0.03 Percentage”, respectively. Besides, the LD50 in data set [2] is 1540 mg/kg.

On to `CC(=O)SCCC(=O)OC(CC(=O)O)C[N+](C)(C)C` (centres unmarked) [ST-405, 3-thioacetyl propionyl-carnitine], for which the figures for the “Percentage variations ± s.e. of bronchial secretion versus basal values” in the data set on bronchial secretion (1 hour after administration), in the data set on bronchial secretion (2 hours after administration) and with bronchial secretion (4 hours after administration) were “+1.1 ± 0.03 Percentage”, “+1.9 ± 0.04 Percentage” and “+3.6 ± 0.05 Percentage”, respectively. The same molecule had an LD50 in data set [2] of 378 mg/kg.

`CC(=O)SC(C)CC(=O)OC(CC(=O)O)C[N+](C)(C)C` (centres unmarked) [ST-406, 3-thioacetyl butyryl carnitine]: the figures for the “Percentage variations ± s.e. of bronchial secretion versus basal values” in the data set on bronchial secretion (1 hour after administration), in the data set on bronchial secretion (2 hours after administration) and in the data set with bronchial secretion (4 hours after administration) were “+1.4 ± 0.05 Percentage”, “+1.9 ± 0.05 Percentage” and “+3.4 ± 0.04 Percentage”, respectively. For the same molecule, the median lethal dose (LD50) in data set [2] was found to be 97 mg/kg.
